# Results taken from patent US4076814A, “Preventive and curative compositions against mycoplasmosis” (Sankyo Company Limited, priority 1975, dated 1978).
# Where a name gives a salt, the structure may show the parent alone.
# How the values were obtained:
# [1] = tested on: Mycoplasma pulmonis; assay: Antimicrobial test, conventional agar plate dilution method, Mycoplasma pulmonis; type: cell-based; conditions: for MIC: Mycoplasma, read-out: Minimum Inhibitory Concentration, Mycoplasma pulmonis
# From the text: (§1) ANTIMICROBIAL TEST AGAINST THREE STRAINS OF MYCOPLASMA
# (§2) The test was effected by a conventional agar plate dilution method using the indicated strains of mycoplasma. The dithiocarbamic acid derivatives as shown below with Compound Nos. were employed in the test.
# [2] = tested on: MRL-4 strain of mycoplasma pulmonis; assay: Curative effect in mice infected with MRL-4 strain of mycoplasma pulmonis by oral administration in feed; type: in vivo; conditions: 10 days, after one month
# Procedure: Each of the dithiocarbamic acid derivatives as indicated below with Compound No. was added to a feed and administered orally to mice infected artificially with MRL-4 strain of mycoplasma pulmonis. The effectiveness of the treatment was evaluated. Six groups, each group consisting of ten female mice which were negative in the test for mycoplasmosis, were used. After MRL-4 strain of mycoplasma pulmonis was cultured in PPLO agar medium, the colonies of the surface of the medium were diluted with a phosphate buffer solution to prepare a solution containing about 10^9 /ml of mycoplasma. 0.1 ml of the microbe-containing solution was injected intravenously to the tail of each mouse. For consecutive 10 days from the next day of the injection, the mice were fed with a powdery feed containing the active compound at respective concentrations of 0.04, 0.02, 0.01 and 0.005%, respectively. During the experiment period, all the procedures were conducted in a vinyl isolater.
# After one month from the starting of the experiment, the presence of arthritis was visually investigated and at the same time the presence of pneumonia was also investigated after dissection. Recovery tests of mycoplasma and general bacteria were conducted using the joints and lungs of host subjects as the testing materials.
# [3] = tested on: Mycoplasma hyorhinis; assay: Antimicrobial test, conventional agar plate dilution method, Mycoplasma hyorhinis; type: cell-based; conditions: for MIC: Mycoplasma, read-out: Minimum Inhibitory Concentration, Mycoplasma hyorhinis
# From the text: as §1, §2
# [4] = tested on: Mycoplasma gallisepticum; assay: Antimicrobial test, conventional agar plate dilution method, Mycoplasma gallisepticum; type: cell-based; conditions: for MIC: Mycoplasmoides gallisepticum, read-out: Minimum Inhibitory Concentration, Mycoplasma gallisepticum
# From the text: as §1, §2
Compound,MIC [1] [µg/mL],MIC [3] [µg/mL],MIC [4] [µg/mL],Attack rate arthritis ([2]; 0.005% in feed),Attack rate pneumonia ([2]; 0.005% in feed),Recovery of mycoplasma joint ([2]; 0.005% in feed),Recovery of mycoplasma lung ([2]; 0.005% in feed),Attack rate arthritis ([2]; 0.01% in feed),Attack rate pneumonia ([2]; 0.01% in feed),Recovery of mycoplasma joint ([2]; 0.01% in feed),Recovery of mycoplasma lung ([2]; 0.01% in feed),Attack rate arthritis ([2]; 0.02% in feed),Attack rate pneumonia ([2]; 0.02% in feed),Recovery of mycoplasma joint ([2]; 0.02% in feed),Recovery of mycoplasma lung ([2]; 0.02% in feed),Attack rate arthritis ([2]; 0.04% in feed),Attack rate pneumonia ([2]; 0.04% in feed),Recovery of mycoplasma joint ([2]; 0.04% in feed),Recovery of mycoplasma lung ([2]; 0.04% in feed),further results
"O=C1CCCCC1CSC(=S)N1CCOCC1 (stereo not shown) [Compound No. 12, 2-Oxocyclohexylmethyl 4-morpholinecarbodithioate]",0.2,0.39,0.05,6/10,0/10,6/10,0/10,4/10,0/10,4/10,0/10,1/10,0/10,1/10,0/10,0/10,0/10,0/10,0/10,
"CCN(CC)C(=S)SCCC(=O)c1ccccc1 [compound 24, 2-Benzoylethyl diethyldithiocarbamate]",0.2,0.39,0.05,4/10,0/10,4/10,0/10,3/10,0/10,3/10,0/10,2/10,0/10,2/10,0/10,0/10,0/10,0/10,0/10,
"Cc1cc2c(c(O)c1CSC(=S)N1CCN(C)CC1)C1OCC34CCCC(C)(C)C3CCC(C)(O2)C14 (stereo not shown) [compound 273, 16-(4-Methyl-1-piperazinethiocarbonylthiomethyl)siccanin hydrochloride]",,,,,,,,,,,,,,,,,,,,"Minimum Inhibitory Concentration, Mycoplasma pulmonis ([1]; hydrochloride): 0.78 µg/mL; Minimum Inhibitory Concentration, Mycoplasma hyorhinis ([3]; hydrochloride): 0.78 µg/mL; Minimum Inhibitory Concentration, Mycoplasma gallisepticum ([4]; hydrochloride): 0.78 µg/mL"

# Second part, led by results:
MIC [1] [µg/mL],MIC [3] [µg/mL],MIC [4] [µg/mL],Compound,Attack rate arthritis ([2]; 0.005% in feed),Attack rate pneumonia ([2]; 0.005% in feed),Recovery of mycoplasma joint ([2]; 0.005% in feed),Recovery of mycoplasma lung ([2]; 0.005% in feed),Attack rate arthritis ([2]; 0.01% in feed),Attack rate pneumonia ([2]; 0.01% in feed),Recovery of mycoplasma joint ([2]; 0.01% in feed),Recovery of mycoplasma lung ([2]; 0.01% in feed),Attack rate arthritis ([2]; 0.02% in feed),Attack rate pneumonia ([2]; 0.02% in feed),Recovery of mycoplasma joint ([2]; 0.02% in feed),Recovery of mycoplasma lung ([2]; 0.02% in feed),Attack rate arthritis ([2]; 0.04% in feed),Attack rate pneumonia ([2]; 0.04% in feed),Recovery of mycoplasma joint ([2]; 0.04% in feed),Recovery of mycoplasma lung ([2]; 0.04% in feed),further results
0.012,0.012,0.012,"CCN(CC)C(=S)SCCC(C)=O [compound 79, 2-Acetylethyl diethyldithiocarbamate]",2/10,0/10,2/10,0/10,0/10,0/10,0/10,0/10,0/10,0/10,0/10,0/10,0/10,0/10,0/10,0/10,
0.05,0.025,0.05,"CC(=O)CCSC(=S)N1CCCCC1 [compound 88, 2-Acetylethyl 1-piperidinecarbodithioate]",3/10,0/10,3/10,0/10,1/10,0/10,1/10,0/10,0/10,0/10,0/10,0/10,0/10,0/10,0/10,0/10,
